In paper PMC9742383, “From tryptamine to the discovery of efficient multi-target directed ligands against cholinesterase-associated neurodegenerative disorders” (Frontiers in Pharmacology, 2022):
Where two headings read alike, the source gives them in different places.

Tests used:
BuChE = BuChE (Equus caballus, UniProt P81908); test: Ellman colorimetric assay; assay type: biochemical; set-up: gene BCHE; native enzyme from equine serum, purchased from Sigma-Aldrich
in vitro = test: in vitro; set-up: MTT cytotoxicity, absorbance at 570 nm, HT-22 mouse hippocampal neuronal cells; settings: mouse, read-out: IC50 ± SD / HT-22 ^a
Protocol: The cell lines present in this study were purchased from the China Center for Type Collection (CCTCC, China). For cytotoxicity assay, HT-22, BV2, SH-SY5Y, HepG2, and LO2 cells were incubated in 96-well plates at the density of 5 × 10³ per well. After incubation for 12 h at 37°C, the tested compounds with the required concentrations were added to the corresponding wells and continuously incubated for 24 h at 37°C. Then, the prepared MTT (3-[4,5-dimethyl-2-thiazolyl]-2,5-diphenyl-2H-tetrazolium bromide) solution was added to each well and co-incubated for another 4 h at 37°C. Then, the supernatant was removed, and 100 μl DMSO was added to each well. The OD value of each well was detected at 570 nm using a microplate reader (Bio-Rad Laboratories, CA, United States). The IC50 values were calculated using IBM SPSS Statistics 25.0 software. All experiments were performed in triplicate, and the results were shown as the mean ± SD. In order to explore the applicability of the synthesized CTDs in neurological diseases, the neuronal cytotoxicity of the synthesized compounds was evaluated on mouse hippocampal neuronal cell line HT-22. […] In view of these CTDs endowed strong inhibition efficacy on BuChE, we preliminarily evaluated their safety range by comparing their IC50 values on cytotoxicity and BuChE inhibitory activity. […] Therefore, the series of compounds with dibenzyl groups, especially compounds bearing ring carbon alkyl chains (2f-2h) and tertiary amine residues (2j-2u) with little cytotoxicity on HT-22, can be considered as potential lead building blocks for further structure optimization to develop novel effective agents against neurological diseases.

AChE = biological target: T1, AChE (Electrophorus electricus, UniProt O42275); test: Ellman colorimetric assay; assay type: biochemical
T1 construct: native enzyme, Type V-S lyophilized powder, Sigma-Aldrich
T1 sequence (O42275 24-633): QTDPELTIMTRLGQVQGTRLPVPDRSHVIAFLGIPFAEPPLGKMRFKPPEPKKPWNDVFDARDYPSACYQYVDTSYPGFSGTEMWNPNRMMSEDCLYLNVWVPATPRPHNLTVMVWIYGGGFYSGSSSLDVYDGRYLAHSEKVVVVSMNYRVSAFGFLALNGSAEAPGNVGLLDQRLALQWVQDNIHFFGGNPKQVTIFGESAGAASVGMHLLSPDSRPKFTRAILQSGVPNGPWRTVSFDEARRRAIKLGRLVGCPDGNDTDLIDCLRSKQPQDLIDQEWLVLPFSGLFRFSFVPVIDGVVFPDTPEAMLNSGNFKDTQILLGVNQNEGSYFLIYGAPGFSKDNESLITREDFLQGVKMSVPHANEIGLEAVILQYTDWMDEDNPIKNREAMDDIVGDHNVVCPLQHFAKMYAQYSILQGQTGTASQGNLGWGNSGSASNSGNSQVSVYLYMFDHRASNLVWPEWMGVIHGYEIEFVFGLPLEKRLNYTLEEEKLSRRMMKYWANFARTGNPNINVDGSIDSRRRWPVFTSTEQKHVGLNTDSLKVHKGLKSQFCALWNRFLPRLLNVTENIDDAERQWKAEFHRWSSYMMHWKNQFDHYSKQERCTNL

[1] = read-out: IC50 ± SD ^a / BuChE ^a
[2] = ht-22 hippocampal neuronal cells
[3] = read-out: IC50 ± SD ^a / AChE ^a

Chain of BuChE (P81908 whole entry): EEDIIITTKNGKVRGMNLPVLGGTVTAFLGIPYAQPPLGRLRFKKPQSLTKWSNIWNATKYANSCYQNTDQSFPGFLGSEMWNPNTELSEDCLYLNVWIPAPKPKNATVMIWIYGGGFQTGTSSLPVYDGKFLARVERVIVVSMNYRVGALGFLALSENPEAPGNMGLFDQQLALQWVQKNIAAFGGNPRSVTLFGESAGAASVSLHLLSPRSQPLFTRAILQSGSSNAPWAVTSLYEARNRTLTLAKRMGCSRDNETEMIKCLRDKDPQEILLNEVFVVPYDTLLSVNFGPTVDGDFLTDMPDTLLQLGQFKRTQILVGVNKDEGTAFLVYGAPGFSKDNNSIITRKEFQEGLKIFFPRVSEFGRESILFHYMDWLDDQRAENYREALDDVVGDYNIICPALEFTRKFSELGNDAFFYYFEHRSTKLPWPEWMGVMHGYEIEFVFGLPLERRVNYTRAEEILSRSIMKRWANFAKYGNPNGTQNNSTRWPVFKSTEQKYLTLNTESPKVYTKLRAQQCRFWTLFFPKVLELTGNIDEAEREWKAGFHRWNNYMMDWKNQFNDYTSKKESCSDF

SMILES	IC50 (BuChE; read-out: IC50 ± SD / BuChE ^a) [µM]	CC50 at 24 h (in vitro; ht-22) [µM]	IC50 (AChE; read-out: IC50 ± SD / AChE ^a) [µM]	IC50 (BuChE; [1]) [µM]	CC50 at 24 h (in vitro; [2]) [µM]	IC50 (AChE; [3]) [µM]
CCCNC(=O)Oc1ccc2[nH]cc(CCN(Cc3ccccc3)Cc3ccccc3)c2c1 [2a, 3-(2-(dibenzylamino)ethyl)-1H-indol-5-yl propylcarbamate]	0.0332 ± 0.00499	51.58 ± 0.05	> 100			
CCCCNC(=O)Oc1ccc2[nH]cc(CCN(Cc3ccccc3)Cc3ccccc3)c2c1 [2b, 3-(2-(dibenzylamino)ethyl)-1H-indol-5-yl butylcarbamate]	0.003 ± 0.00021	40.6 ± 1.12	> 100			
CCCCCCNC(=O)Oc1ccc2[nH]cc(CCN(Cc3ccccc3)Cc3ccccc3)c2c1 [2d, 3-(2-(dibenzylamino)ethyl)-1H-indol-5-yl hexylcarbamate]	0.00147 ± 0.00015	37.6 ± 1.92	> 100			
O=C(NC1CCCC1)Oc1ccc2[nH]cc(CCN(Cc3ccccc3)Cc3ccccc3)c2c1 [2g, 3-(2-(dibenzylamino)ethyl)-1H-indol-5-yl cyclopentylcarbamate]	0.0337 ± 0.00162	57.3 ± 4.3	> 100			
O=C(Nc1ccccc1)Oc1ccc2[nH]cc(CCN(Cc3ccccc3)Cc3ccccc3)c2c1 [2i, 3-(2-(dibenzylamino)ethyl)-1H-indol-5-yl phenylcarbamate]	0.0558 ± 0.00314	41.8 ± 2.31	> 100			
CCN(CC)C(=O)Oc1ccc2[nH]cc(CCN(Cc3ccccc3)Cc3ccccc3)c2c1 [2k, 3-(2-(dibenzylamino)ethyl)-1H-indol-5-yl diethylcarbamate]	0.3209 ± 0.00206	54.68 ± 0.42	> 100			
CCCN(CCC)C(=O)Oc1ccc2[nH]cc(CCN(Cc3ccccc3)Cc3ccccc3)c2c1 [2l, 3-(2-(dibenzylamino)ethyl)-1H-indol-5-yl dipropylcarbamate]	0.0159 ± 0.00055	38.6 ± 0.9	> 100			
O=C(Oc1ccc2[nH]cc(CCN(Cc3ccccc3)Cc3ccccc3)c2c1)N(c1ccccc1)c1ccccc1 [2n, 3-(2-(dibenzylamino)ethyl)-1H-indol-5-yl diphenylcarbamate]	0.2623 ± 0.00248	> 100	> 100			
O=C(Oc1ccc2[nH]cc(CCN(Cc3ccccc3)Cc3ccccc3)c2c1)N1CCCCC1 [2s, 3-(2-(dibenzylamino)ethyl)-1H-indol-5-yl piperidine-1-carboxylate]	0.0334 ± 0.00521	42.7 ± 2.09	> 100			
CCCNC(=O)Oc1ccc2[nH]cc(CCNCc3ccccc3)c2c1 [3a, 3-(2-(benzylamino)ethyl)-1H-indol-5-yl propylcarbamate]				0.0182 ± 0.00068	31.3 ± 2.32	1.95
CCCCNC(=O)Oc1ccc2[nH]cc(CCNCc3ccccc3)c2c1 [3b, 3-(2-(benzylamino)ethyl)-1H-indol-5-yl butylcarbamate]				0.0237 ± 0.00118	18.5 ± 0.81	1.69
CCCCCCNC(=O)Oc1ccc2[nH]cc(CCNCc3ccccc3)c2c1 [3d, 3-(2-(benzylamino)ethyl)-1H-indol-5-yl hexylcarbamate]				0.019 ± 0.00029	16.3 ± 1.19	2.44
CCCCCCCNC(=O)Oc1ccc2[nH]cc(CCNCc3ccccc3)c2c1 [3e, 3-(2-(benzylamino)ethyl)-1H-indol-5-yl heptylcarbamate]				0.0336 ± 0.00164	6.49 ± 0.34	1.13
O=C(NC1CCCC1)Oc1ccc2[nH]cc(CCNCc3ccccc3)c2c1 [3g, 3-(2-(benzylamino)ethyl)-1H-indol-5-yl cyclopentylcarbamate]				0.0136 ± 0.0007	18.2 ± 0.95	27.2
O=C(NC1CCCCC1)Oc1ccc2[nH]cc(CCNCc3ccccc3)c2c1 [3h, 3-(2-(benzylamino)ethyl)-1H-indol-5-yl cyclohexylcarbamate]				0.0435 ± 0.00335	11.6 ± 0.34	> 100
O=C(Nc1ccccc1)Oc1ccc2[nH]cc(CCNCc3ccccc3)c2c1 [3i, 3-(2-(benzylamino)ethyl)-1H-indol-5-yl phenylcarbamate]				0.11 ± 0.00522	18.4 ± 0.43	23.3
CN(C)C(=O)Oc1ccc2[nH]cc(CCNCc3ccccc3)c2c1 [3j, 3-(2-(benzylamino)ethyl)-1H-indol-5-yl dimethylcarbamate]				0.132 ± 0.00359	21.7 ± 0.72	1.91
CCN(CC)C(=O)Oc1ccc2[nH]cc(CCNCc3ccccc3)c2c1 [3k, 3-(2-(benzylamino)ethyl)-1H-indol-5-yl diethylcarbamate]				0.0725 ± 0.00655	16 ± 0.39	> 100
CCCN(CCC)C(=O)Oc1ccc2[nH]cc(CCNCc3ccccc3)c2c1 [3l, 3-(2-(benzylamino)ethyl)-1H-indol-5-yl dipropylcarbamate]				0.044 ± 0.00184	6.31 ± 0.39	> 100
CCCCN(CCCC)C(=O)Oc1ccc2[nH]cc(CCNCc3ccccc3)c2c1 [3m, 3-(2-(benzylamino)ethyl)-1H-indol-5-yl dibutylcarbamate]				0.0974 ± 0.00853	3.87 ± 0.35	19.8
O=C(Oc1ccc2[nH]cc(CCNCc3ccccc3)c2c1)N(c1ccccc1)c1ccccc1 [3n, 3-(2-(benzylamino)ethyl)-1H-indol-5-yl diphenylcarbamate]				0.156 ± 0.00358	0.54 ± 0.03	> 100
CON(C)C(=O)Oc1ccc2[nH]cc(CCNCc3ccccc3)c2c1 [3o, 3-(2-(benzylamino)ethyl)-1H-indol-5-yl methoxy(methyl)carbamate]				0.0588 ± 0.00292	50.4 ± 1.07	2.61
CN(C(=O)Oc1ccc2[nH]cc(CCNCc3ccccc3)c2c1)c1ccccc1 [3p, 3-(2-(benzylamino)ethyl)-1H-indol-5-yl methyl(phenyl)carbamate]				0.0254 ± 0.00027	11 ± 1.12	7.05
O=C(Oc1ccc2[nH]cc(CCNCc3ccccc3)c2c1)N1CCC1 [3q, 3-(2-(benzylamino)ethyl)-1H-indol-5-yl azetidine-1-carboxylate]				0.00258 ± 0.00013	57.8 ± 2.88	0.482 ± 0.00599
O=C(Oc1ccc2[nH]cc(CCNCc3ccccc3)c2c1)N1CCCC1 [3r]				0.0405 ± 0.00179	31.7 ± 1.64	1.82
O=C(Oc1ccc2[nH]cc(CCNCc3ccccc3)c2c1)N1CCCCCC1 [3t, 3-(2-(benzylamino)ethyl)-1H-indol-5-yl azepane-1-carboxylate]				0.0232 ± 0.00094	11.9 ± 0.39	> 100
O=C(Oc1ccc2[nH]cc(CCNCc3ccccc3)c2c1)N1CCOCC1 [3u, 3-(2-(benzylamino)ethyl)-1H-indol-5-yl morpholine-4-carboxylate]				0.112 ± 0.00737	51.3 ± 2.55	> 100
CCCCCNC(=O)Oc1ccc2[nH]cc(CCN)c2c1 [4c, 3-(2-aminoethyl)-1H-indol-5-yl pentylcarbamate]				0.121 ± 0.00838	> 100	> 100
CCCCCCNC(=O)Oc1ccc2[nH]cc(CCN)c2c1 [4d, 3-(2-aminoethyl)-1H-indol-5-yl hexylcarbamate]				0.0277 ± 0.00204	25.2 ± 1.37	> 100
